Values after ≈ are worked out from the molar mass of the structure shown. Active and inactive are the calls of the source. No cut-off for these calls is given here.
What was measured:
[1] = biological target: cAMP and cAMP-inhibited cGMP 3',5'-cyclic phosphodiesterase 10A (Homo sapiens, UniProt Q9Y233); test: Inhibition of PDE10A (unknown origin) by IMAP assay
[2] = Plasma protein binding in iv dosed Wistar Hanover rat; format: ADME, organism-based; conditions: read-out: PPB (converted)
[3] = biological target: T1, Nuclear receptor subfamily 1 group I member 2 (Homo sapiens, UniProt O75469); test: Activation of PXR (unknown origin); format: ADME
T1 sequence (O75469 whole entry): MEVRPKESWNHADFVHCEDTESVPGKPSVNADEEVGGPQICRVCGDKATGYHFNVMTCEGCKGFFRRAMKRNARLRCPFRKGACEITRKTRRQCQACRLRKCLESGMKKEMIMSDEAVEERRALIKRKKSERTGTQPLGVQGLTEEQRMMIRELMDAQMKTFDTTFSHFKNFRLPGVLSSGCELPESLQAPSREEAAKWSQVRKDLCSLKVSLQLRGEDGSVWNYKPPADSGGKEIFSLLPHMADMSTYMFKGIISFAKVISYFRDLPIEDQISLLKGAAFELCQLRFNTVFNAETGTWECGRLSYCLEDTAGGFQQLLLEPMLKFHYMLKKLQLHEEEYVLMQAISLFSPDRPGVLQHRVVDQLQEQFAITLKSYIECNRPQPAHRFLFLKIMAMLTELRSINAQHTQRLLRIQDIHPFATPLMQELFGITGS

[4] = biological target: T2, Cytochrome P450 3A4 (Homo sapiens, UniProt P08684); test: Inhibition of CYP3A4 (unknown origin); format: ADME
[5] = biological target: Cytochrome P450 2D6 (Homo sapiens, UniProt P10635); test: Inhibition of CYP2D6 (unknown origin); format: ADME
[6] = Aqueous solubility of the compound at pH 7; format: physicochemical
[7] = biological target: Voltage-gated inwardly rectifying potassium channel KCNH2 (Homo sapiens, UniProt Q12809); test: Inhibition of MK-499 binding to human ERG
[8] = Plasma protein binding in rat; format: ADME, cell-free; conditions: read-out: PPB (converted)
[9] = Plasma clearance in iv dosed Wistar Hanover rat; format: ADME, organism-based
[10] = Plasma clearance in iv dosed beagle dog; format: ADME, organism-based, Canis lupus familiaris
[11] = system: P-gp; test: Substrate activity at rat P-gp assessed as efflux ratio of permeability across basolateral to apical over apical to basolateral side; format: ADME; conditions: not told
[12] = Plasma clearance in iv dosed rhesus monkey; format: ADME, organism-based, Macaca mulatta
[13] = species: Cavia porcellus; test: Toxicity in guinea pig; format: organism-based; conditions: in vivo
[14] = Oral bioavailability in beagle dog; format: ADME, organism-based, Canis lupus familiaris; conditions: in vivo
[15] = species: Rattus norvegicus; test: Toxicity in rat assessed as decrease in body weight gain after 7 days; format: organism-based; conditions: in vivo, 168 h
[16] = Plasma protein binding in iv dosed rhesus monkey; format: ADME, organism-based, Macaca mulatta; conditions: read-out: PPB (converted)
[17] = system: Rattus norvegicus; test: Toxicity in rat assessed as influence on circulating prolactin level up to 30 mg/kg, po; format: organism-based; conditions: in vivo
[18] = species: Homo sapiens; test: Selectivity for PDE10A (unknown origin) over PDE (unknown origin)
[19] = Oral bioavailability in Wistar Hanover rat; format: ADME, organism-based; conditions: in vivo
[20] = Plasma protein binding in iv dosed beagle dog; format: ADME, organism-based, Canis lupus familiaris; conditions: read-out: PPB (converted)
[21] = Apparent passive permeability of the compound; format: physicochemical; conditions: not told
[22] = Oral bioavailability in rhesus monkey; format: ADME, organism-based, Macaca mulatta; conditions: in vivo
[23] = system: Rattus norvegicus; test: In vivo inhibition of PDE10A in rat striatum assessed as increase in cGMP level at >3 mg/kg, po after 2 hrs relative to control; format: functional
[24] = Terminal half life in iv dosed Wistar Hanover rat; format: ADME, organism-based; conditions: in vivo, read-out: beta t1/2 (converted)
[25] = system: Rattus norvegicus; test: Anti-psychotic activity in rat assessed as plasma concentration needed to attenuate MK-801-induced hyperlocomotion at 1.5 mg/kg, po; format: functional
[26] = system: Rattus norvegicus; test: Cardiotoxicity in iv dosed rat; format: toxicity, organism-based; conditions: in vivo
[27] = system: Rattus norvegicus; test: Toxicity in rat up to 250 mg/kg after 7 days; format: organism-based; conditions: in vivo, 168 h
[28] = Lipophilicity, log D of the compound at pH 7 by HPLC method; format: physicochemical; conditions: buffer
[29] = species: Rattus norvegicus; test: Toxicity in rat assessed as decrease in total body fat after 7 days; format: organism-based; conditions: in vivo, 168 h
[30] = biological target: T2, Cytochrome P450 3A4; test: Time dependent inhibition of CYP3A4 (unknown origin); format: ADME
[31] = species: Rattus norvegicus; test: Toxicity in rat assessed as lean body mass after 7 days; format: organism-based; conditions: in vivo, 168 h
[32] = Plasma protein binding in iv dosed human; format: ADME, organism-based; conditions: read-out: PPB (converted)
[33] = Terminal half life in iv dosed beagle dog; format: ADME, organism-based, Canis lupus familiaris; conditions: in vivo, read-out: beta t1/2 (converted)
[34] = Terminal half life in iv dosed rhesus monkey; format: ADME, organism-based, Macaca mulatta; conditions: in vivo, read-out: beta t1/2 (converted)
[35] = system: P-gp; test: Substrate activity at human P-gp assessed as efflux ratio of permeability across basolateral to apical over apical to basolateral side; format: ADME; conditions: not told
[36] = system: Rattus norvegicus; test: Cognition enhancing activity in rat assessed as increase in episodic like memory up to 1.5 mg/kg, po by novel object recognition assay; format: functional, organism-based
[37] = system: Salmonella typhimurium; test: Mutagenicity in Salmonella typhimurium up to 5000 ug/plate by 5-strain Ames test; format: toxicity, organism-based; conditions: salmonella enterica subsp. enterica serovar typhimurium
[38] = system: Rhesus monkey; test: Potency index, ratio of THPP-1 Occ50 to compound Occ50 for in-vivo occupancy at PDE10A in rhesus monkey assessed as inhibition of [11C]MK-8193 binding; format: functional, Macaca mulatta
[39] = species: Rattus norvegicus; test: Anti-psychotic activity in rat assessed as reversal of MK-801-induced prepulse inhibition; format: functional, organism-based
[40] = Inhibition of platelet aggregation factor (unknown origin); set-up: species or system Homo sapiens
[41] = system: Rhesus monkey; test: In-vivo occupancy at PDE10A in rhesus monkey assessed as inhibition of [11C]MK-8193 binding; format: functional, Macaca mulatta
[42] = system: Rattus norvegicus; test: Toxicity in rat assessed as induction of catalepsy up to 30 mg/kg, po; format: organism-based; conditions: in vivo
[43] = biological target: Cytochrome P450 2C9 (Homo sapiens, UniProt P11712); test: Inhibition of CYP2C9 (unknown origin); format: ADME
[44] = Clearance in rat; format: ADME, organism-based; conditions: in vivo

T2 sequence (P08684 whole entry): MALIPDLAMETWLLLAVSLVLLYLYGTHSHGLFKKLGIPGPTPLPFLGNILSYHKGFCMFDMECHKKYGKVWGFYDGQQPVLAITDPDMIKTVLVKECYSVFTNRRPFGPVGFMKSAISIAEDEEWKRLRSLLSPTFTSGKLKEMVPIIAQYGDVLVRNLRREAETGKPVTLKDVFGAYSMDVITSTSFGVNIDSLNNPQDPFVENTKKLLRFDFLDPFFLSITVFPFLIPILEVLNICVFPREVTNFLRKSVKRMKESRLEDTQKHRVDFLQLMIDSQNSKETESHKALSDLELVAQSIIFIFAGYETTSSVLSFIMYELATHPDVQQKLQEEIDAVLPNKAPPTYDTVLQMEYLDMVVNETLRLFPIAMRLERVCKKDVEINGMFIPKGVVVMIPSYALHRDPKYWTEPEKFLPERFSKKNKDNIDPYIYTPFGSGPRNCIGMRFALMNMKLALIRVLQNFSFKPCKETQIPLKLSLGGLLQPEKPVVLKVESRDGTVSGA
Sequence of cAMP and cAMP-inhibited cGMP 3',5'-cyclic phosphodiesterase 10A (Q9Y233 whole entry): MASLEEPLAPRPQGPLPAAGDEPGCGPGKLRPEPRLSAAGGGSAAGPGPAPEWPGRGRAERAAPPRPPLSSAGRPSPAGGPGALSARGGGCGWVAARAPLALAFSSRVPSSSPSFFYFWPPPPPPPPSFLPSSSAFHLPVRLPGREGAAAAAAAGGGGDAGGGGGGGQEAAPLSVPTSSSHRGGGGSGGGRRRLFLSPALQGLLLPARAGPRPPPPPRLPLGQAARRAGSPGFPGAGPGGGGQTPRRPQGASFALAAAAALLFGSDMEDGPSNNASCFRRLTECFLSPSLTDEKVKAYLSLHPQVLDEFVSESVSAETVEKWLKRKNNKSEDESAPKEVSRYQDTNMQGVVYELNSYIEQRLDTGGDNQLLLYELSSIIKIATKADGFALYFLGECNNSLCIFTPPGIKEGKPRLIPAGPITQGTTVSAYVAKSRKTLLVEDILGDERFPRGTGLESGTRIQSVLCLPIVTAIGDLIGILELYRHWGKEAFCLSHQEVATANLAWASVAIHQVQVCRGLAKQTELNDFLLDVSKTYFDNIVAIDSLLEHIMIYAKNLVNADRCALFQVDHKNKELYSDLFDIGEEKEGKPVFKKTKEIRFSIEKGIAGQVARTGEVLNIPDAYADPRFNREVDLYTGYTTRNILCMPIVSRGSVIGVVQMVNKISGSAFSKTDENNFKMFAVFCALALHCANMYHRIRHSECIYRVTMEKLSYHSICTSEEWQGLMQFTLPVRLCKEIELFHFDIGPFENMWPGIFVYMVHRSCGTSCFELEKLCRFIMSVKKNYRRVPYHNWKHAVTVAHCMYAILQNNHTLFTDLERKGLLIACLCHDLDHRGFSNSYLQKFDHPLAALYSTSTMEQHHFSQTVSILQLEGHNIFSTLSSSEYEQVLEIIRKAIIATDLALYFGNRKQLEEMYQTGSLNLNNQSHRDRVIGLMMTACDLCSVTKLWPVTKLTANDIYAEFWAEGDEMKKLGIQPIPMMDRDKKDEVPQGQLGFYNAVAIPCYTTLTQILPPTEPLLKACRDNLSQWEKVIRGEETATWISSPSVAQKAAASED
Sequence of Voltage-gated inwardly rectifying potassium channel KCNH2 (Q12809 whole entry): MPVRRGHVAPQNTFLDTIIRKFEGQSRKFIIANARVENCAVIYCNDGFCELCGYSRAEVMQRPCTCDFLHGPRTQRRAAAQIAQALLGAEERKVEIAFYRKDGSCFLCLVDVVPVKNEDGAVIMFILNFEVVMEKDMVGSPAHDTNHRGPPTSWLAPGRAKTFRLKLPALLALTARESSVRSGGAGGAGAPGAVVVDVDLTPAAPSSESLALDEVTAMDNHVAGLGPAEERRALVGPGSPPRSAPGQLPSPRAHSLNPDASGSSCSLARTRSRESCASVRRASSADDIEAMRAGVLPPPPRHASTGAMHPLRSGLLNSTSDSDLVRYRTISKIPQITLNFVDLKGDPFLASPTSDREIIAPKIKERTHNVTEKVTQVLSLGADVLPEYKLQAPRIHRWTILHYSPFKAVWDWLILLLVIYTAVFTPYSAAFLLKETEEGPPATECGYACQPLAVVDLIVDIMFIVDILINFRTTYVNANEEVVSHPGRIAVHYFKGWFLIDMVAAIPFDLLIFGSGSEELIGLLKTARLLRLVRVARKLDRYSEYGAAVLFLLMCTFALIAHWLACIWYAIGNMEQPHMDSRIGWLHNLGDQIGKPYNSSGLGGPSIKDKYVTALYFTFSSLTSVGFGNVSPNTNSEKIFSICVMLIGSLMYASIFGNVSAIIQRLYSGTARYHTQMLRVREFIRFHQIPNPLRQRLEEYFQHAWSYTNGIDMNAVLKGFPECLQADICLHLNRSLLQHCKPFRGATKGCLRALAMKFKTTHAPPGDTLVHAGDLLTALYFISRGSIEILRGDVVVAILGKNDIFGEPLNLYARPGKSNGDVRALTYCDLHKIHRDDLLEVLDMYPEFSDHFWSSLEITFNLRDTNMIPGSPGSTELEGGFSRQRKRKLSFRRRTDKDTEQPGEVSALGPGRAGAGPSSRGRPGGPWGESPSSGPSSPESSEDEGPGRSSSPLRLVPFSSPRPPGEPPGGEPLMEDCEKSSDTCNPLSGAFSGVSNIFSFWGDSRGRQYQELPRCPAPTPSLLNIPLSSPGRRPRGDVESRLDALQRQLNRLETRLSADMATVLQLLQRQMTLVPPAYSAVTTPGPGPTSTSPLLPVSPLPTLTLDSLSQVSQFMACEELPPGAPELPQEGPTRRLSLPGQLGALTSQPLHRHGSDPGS
Sequence of Cytochrome P450 2D6 (P10635 whole entry): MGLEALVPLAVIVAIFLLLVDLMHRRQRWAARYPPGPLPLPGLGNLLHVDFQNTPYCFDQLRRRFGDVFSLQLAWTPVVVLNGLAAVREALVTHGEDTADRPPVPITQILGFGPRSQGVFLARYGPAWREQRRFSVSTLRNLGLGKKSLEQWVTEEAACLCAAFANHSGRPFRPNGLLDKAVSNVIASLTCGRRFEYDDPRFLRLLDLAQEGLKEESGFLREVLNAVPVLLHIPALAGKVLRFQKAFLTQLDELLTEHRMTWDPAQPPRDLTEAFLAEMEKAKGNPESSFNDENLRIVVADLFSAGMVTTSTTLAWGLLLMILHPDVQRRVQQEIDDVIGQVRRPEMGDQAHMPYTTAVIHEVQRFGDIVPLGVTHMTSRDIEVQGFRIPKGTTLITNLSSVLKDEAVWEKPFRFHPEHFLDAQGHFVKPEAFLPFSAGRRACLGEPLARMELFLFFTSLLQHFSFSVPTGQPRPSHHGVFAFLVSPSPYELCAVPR
Sequence of Cytochrome P450 2C9 (P11712 whole entry): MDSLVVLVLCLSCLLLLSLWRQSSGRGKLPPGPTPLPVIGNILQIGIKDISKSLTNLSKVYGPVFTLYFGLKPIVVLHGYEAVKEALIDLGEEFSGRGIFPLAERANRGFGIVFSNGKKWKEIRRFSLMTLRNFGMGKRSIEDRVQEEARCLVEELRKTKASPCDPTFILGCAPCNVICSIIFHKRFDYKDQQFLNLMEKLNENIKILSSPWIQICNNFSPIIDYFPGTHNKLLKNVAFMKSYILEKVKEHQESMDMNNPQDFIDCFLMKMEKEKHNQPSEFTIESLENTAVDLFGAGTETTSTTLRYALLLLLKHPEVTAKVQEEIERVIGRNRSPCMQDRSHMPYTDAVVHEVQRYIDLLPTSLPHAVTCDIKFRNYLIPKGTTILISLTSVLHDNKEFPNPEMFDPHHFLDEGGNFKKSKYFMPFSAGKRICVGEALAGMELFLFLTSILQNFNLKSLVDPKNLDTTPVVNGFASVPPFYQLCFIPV

COc1ccnc(C2CC2COc2nc(Cl)c(C)c(NCc3sc(C)nc3C)n2)c1 (racemic)
Ki [1]: 0.01 nM

Cc1nc(C)c(CNc2nc(CCC#Cc3ccccn3)nc(Cl)c2C)s1
Ki [1]: 1.1 nM

Cc1nc(C)c(CNc2nc(C3CC3)nc(Cl)c2C)s1
fraction unbound [2]: 0.015 | EC50 [3]: 19000 nM | IC50 [4]: 17000 nM | IC50 [5]: 8200 nM | solubility [6]: 2 µM (≈ 0.618 µg/mL)

Cc1nc(C)c(CNc2nc(OC[C@H]3C[C@@H]3c3ccccn3)nc(Cl)c2C)s1 (racemic)
Ki [1]: 0.07 nM

Cc1nc(C)c(CNc2cc(C3CC3)nc3ccnn23)s1
INH [7]: 52 µM | fraction unbound [8]: 0.08 | EC50 [3]: > 250000 nM | IC50 [4]: > 50000 nM | solubility [6]: 196 µM (≈ 58.7 µg/mL)

Cc1nc(C)c(CNc2nc(CC[C@H]3C[C@@H]3c3ccccn3)nc(Cl)c2C)s1 (racemic)
Ki [1]: 1.7 nM

Cc1nc(C)c(CNc2nc(OCCCc3ccc4ccccc4n3)nc(Cl)c2C)s1
INH [7]: 3.8 µM | EC50 [3]: 2300 nM | clearance [9]: 60 mL/min/kg

Cc1nc(C)c(CNc2nc(OCC#Cc3ccccn3)nc(Cl)c2C)s1
Ki [1]: 3.1 nM

Cc1nc(C)c(CNc2nc(OCC3CC3c3cn(C)cn3)nc(Cl)c2C)s1 (racemic)
Ki [1]: 0.02 nM

Cc1nc(C)c(CNc2nc(OCCCc3ccccn3)nc(Cl)c2C)s1
Ki [1]: 1.1 nM

Cc1nc(C)c(CNc2nc(OCC3CC3c3ccc4ncccc4n3)nc(Cl)c2C)s1 (racemic)
Ki [1]: 0.02 nM

Cc1nc(C)c(CNc2nc(OC[C@@H]3C[C@H]3c3ccccn3)nc(Cl)c2C)s1
Ki [1]: 8.6 nM

Cn1cc(CNc2cc(OC[C@H]3C[C@@H]3c3ccccn3)nc3ccnn23)cn1
INH [7]: > 60 µM | clearance [10]: 3.9 mL/min/kg | fraction unbound [2]: 0.09 | efflux ratio [11]: 0.7 | clearance [12]: 8.2 mL/min/kg | Activity [13]: Non-toxic | bioavailability [14]: 63% | EC50 [3]: > 25000 nM | Activity [15]: Toxic | fraction unbound [16]: 0.03 | Activity [17]: Non-toxic | Ki [1]: 0.23 nM | Selectivity ratio [18]: > 5800 | bioavailability [19]: 41% | IC50 [4]: > 50000 nM | fraction unbound [20]: 0.06 | Papp [21]: 36 ×10⁻⁶ cm/s | bioavailability [22]: 46% | inhibition (INH) [23]: >150% | half-life [24]: 4.9 h | Activity [25]: 130 nM | Activity [26]: Non-toxic | Activity [27]: Non-toxic | logD [28]: 2 | Activity [29]: Toxic | TDI [30]: Not Active | Activity [31]: Toxic | fraction unbound [32]: 0.07 | half-life [33]: 8.7 h | half-life [34]: 2.8 h | efflux ratio [35]: 0.6 | clearance [9]: 21 mL/min/kg | Activity [36]: Active | Activity [37]: Non-toxic | Ratio [38]: 2 | Activity [39]: Dose-dependent effect | IC50 [40]: 2200 nM | Occ50 [41]: 1.1 µM | Activity [42]: Non-toxic

Cc1nc(C)c(CNc2nc(OCC3CC3c3ccncc3)nc(Cl)c2C)s1 (centres undefined)
Ki [1]: 8.3 nM

Cc1c(Cl)nc(C2CC2)nc1Cl
solubility [6]: 150 µM (≈ 30.5 µg/mL)

Cc1nc(C)c(CNc2nc(OC[C@H]3C[C@@H]3c3ccccn3)nc(Cl)c2C)s1
Ki [1]: 0.03 nM

Cc1nc(C)c(CNc2nc(OCC3CC3c3ccc4ccccc4n3)nc(Cl)c2C)s1 (racemic)
Ki [1]: 0.01 nM

Cc1nc(C)c(CNc2nc(OCC3CC3C3CCCN3C)nc(Cl)c2C)s1 (racemic; form 2)
Ki [1]: 54 nM

Cc1nc(C)c(CNc2nc(OCC3CC3c3ccc(C#N)cn3)nc(Cl)c2C)s1 (racemic)
Ki [1]: 1.4 nM

Clc1cc(Cl)n2nccc2n1
Ki [1]: 24000 nM | solubility [6]: > 500 µM

Cc1nc(C)c(CNc2nc(OCC3CC3c3ncccn3)nc(Cl)c2C)s1 (racemic)
Ki [1]: 3.6 nM

Cc1nc(C)c(CNc2nc(OC[C@H]3C[C@H]3c3ccccn3)nc(Cl)c2C)s1 (racemic)
Ki [1]: 15.5 nM

Cc1nc(C)c(CNc2nc(NCC(C)(C)Cc3ccccn3)nc(Cl)c2C)s1
Ki [1]: 19.1 nM

Cn1cc(-c2ccncc2)c(-c2ccc(OCc3ccc4ccccc4n3)cc2)n1 [MARDEPODECT]
solubility [6]: 4 µM (≈ 1.57 µg/mL)

Cc1nc(C)c(CNc2nc(NCCCc3ccccn3)nc(Cl)c2C)s1
Ki [1]: 4.1 nM

Cc1ccnc(C2CC2COc2nc(Cl)c(C)c(NCc3sc(C)nc3C)n2)c1 (centres undefined)
Ki [1]: 0.01 nM

Cc1c(Cl)nc(OC[C@H]2C[C@@H]2c2ccccn2)nc1NCc1cnn(C)c1
INH [7]: > 60 µM | fraction unbound [8]: 0.01 | EC50 [3]: 5600 nM | IC50 [43]: 5200 nM | clearance [44]: 29 mL/min/kg | Selectivity ratio [18]: > 2500 | IC50 [4]: 3800 nM | solubility [6]: 162 µM (≈ 62.3 µg/mL)

Cc1nc(C)c(CNc2nc(CCCOc3ccccn3)nc(Cl)c2C)s1
Ki [1]: 3.1 nM

Cc1nc(C)c(CNc2nc(CCCCc3ccccn3)nc(Cl)c2C)s1
Ki [1]: 0.4 nM

Cc1nc(C)c(CNc2nc(OCC3CC3c3cc4ccccn4n3)nc(Cl)c2C)s1 (racemic)
Ki [1]: 0.006 nM

Cc1nc(C)c(CNc2nc(OCC3CC3C3CCCN3C)nc(Cl)c2C)s1 (racemic; form 1)
Ki [1]: 102 nM

Cc1nc(C)c(CNc2nc(OCC3CC3c3cncn3C)nc(Cl)c2C)s1 (centres undefined)
Ki [1]: 20.3 nM

Cc1nc(C)c(CNc2cc(Cl)nc3ccnn23)s1
Ki [1]: 58 nM
